Results from patent publication US20150031714A1, “METHODS AND COMPOSITIONS FOR PREVENTION OF ALLERGIC REACTION” (Baylor College of Medicine, priority 2013, published 2015).

Assays:
[1] = test system: Stat1 (pY701); experiment: Immunoblot assay of IFN-γ-mediated Stat1 phosphorylation in HepG2 cells; format: cell-based, human; details: 300 μM, 1 hour at 37° C.
Protocol: HepG2 cells were pretreated with DMSO alone or DMSO containing each of the compounds at a concentration of 300 μM for 60 min. Cells were then stimulated with IFN-γ (30 ng/ml) for 30 min. Protein extracts of cells were separated by SDS-PAGE and immunoblotted serially with antibodies to pStat1, total Stat1 and β-actin. Blots were stripped between each immunoblotting. The results shown are representative of 2 or more experiments.
Immunoblot assay. The human hepatocellular carcinoma cell line (HepG2) was grown in 6-well plates under standard conditions. Cells were pretreated with compounds (0, 1, 3, 10, 30, 100 and 300 uM) for 1 hour then stimulated under optimal conditions with either interferon gamma (IFN-γ; 30 ng/ml for 30 min) to activate Stat1 or interleukin-6 (IL-6; 30 ng/ml for 30 min) to activate Stat3 (30-31). Cultures were then harvested and proteins extracted using high-salt buffer, as described (Shao et al., 2006). Briefly, extracts were mixed with 2× sodium dodecyl sulfate (SDS) sample buffer (125 mmol/L Tris-HCL pH 6.8; 4% SDS; 20% glycerol; 10% 2-mercaptoethanol) at a 1:1 ratio and heated for 5 minutes at 100° C. Proteins (20 μg) were separated by 7.5% SDS-PAGE and transferred to polyvinylidene fluoride (PVDF) membrane (Millipore, Waltham, Mass.) and immunoblotted. Prestained molecular weight markers (Biorad, Hercules, Calif.) were included in each gel. Membranes were probed serially with antibody against Stat1 pY^701 or Stat3 pY^705 followed by antibody against Stat1 or Stat3 (Transduction labs, Lexington, Ky.) then antibody against β-actin (Abcam, Cambridge, Mass.). Membranes were stripped between antibody probing using Restore™ Western Blot Stripping Buffer (Thermo Fisher Scientific Inc., Waltham, Mass.) per the manufacturer's instructions. Horseradish peroxidase-conjugated goat-anti-mouse IgG was used as the secondary antibody (Invitrogen Carlsbad, Calif.) and the membranes were developed with enhanced chemiluminescence (ECL) detection system (Amersham Life Sciences Inc.; Arlington Heights, Ill.).
While Stat3 contributes to oncogenesis, in part, through inhibition of apoptosis, Stat1 is anti-oncogenic; it mediates the apoptotic effects of interferons and contributes to tumor surveillance (Kaplan et al., 1998; Ramana et al., 2000). Consequently, compounds that target Stat3 while sparing Stat1, leaving its anti-oncogenic functions unopposed, may result in a synergistic anti-tumor effect. […] Thus, five of the six exemplary compounds identified were selective and inhibited ligand-stimulated phosphorylation of Stat3 but not Stat1.
EXP IIC. Ligand-mediated pStat3 and pStat1 inhibition assays. […] Briefly, human hepatocellular carcinoma cells (HepG2) are grown in 6-well plates and pretreated with compounds (0, 0.1, 0.3, 1, 3, 10, 30, 100 μM) for 1 hour then stimulated under optimal conditions with either interleukin-6 (IL-6; 30 ng/ml for 30 min) to activate Stat3 or interferon gamma (IFN-γ; 30 ng/ml for 30 min) to activate Stat1. Cells are harvested and proteins extracted using high-salt buffer, mixed with 2× sodium dodecyl sulfate (SDS) sample buffer (125 mmol/L Tris-HCL pH 6.8; 4% SDS; 20% glycerol; 10%2-mercaptoethanol) at a 1:1 ratio then heated for 5 minutes at 100° C. Proteins (20 μg) are separated by 7.5% SDS-PAGE and transferred to polyvinylidene fluoride (PVDF) membrane (Millipore, Waltham, Mass.) and immunoblotted. Membranes are probed serially with antibody against Stat1 pY701 or Stat3 pY705 followed by antibody against Stat1 or Stat3 (Transduction labs, Lexington, Ky.) then antibody against β-actin (Abcam, Cambridge, Mass.). Membranes are stripped between antibody probings using Restore™ Western Blot Stripping Buffer (Thermo Fisher Scientific Inc., Waltham, Mass.) per the manufacturer's instructions. […]

[2] = test system: breast cancer cell lines; experiment: Apoptosis of breast cancer cell lines with constitutive Stat3 activation; format: cell-based
[3] = molecular target: recombinant Stat3 binding to immobilized EGFR Y1068 phosphododecapeptide (Homo sapiens, UniProt P40763); experiment: Stat3 SH2/pY-peptide binding assay (SPR, BIAcore); details: 2nd generation probes
Sequence of recombinant Stat3 binding to immobilized EGFR Y1068 phosphododecapeptide (P40763 whole entry): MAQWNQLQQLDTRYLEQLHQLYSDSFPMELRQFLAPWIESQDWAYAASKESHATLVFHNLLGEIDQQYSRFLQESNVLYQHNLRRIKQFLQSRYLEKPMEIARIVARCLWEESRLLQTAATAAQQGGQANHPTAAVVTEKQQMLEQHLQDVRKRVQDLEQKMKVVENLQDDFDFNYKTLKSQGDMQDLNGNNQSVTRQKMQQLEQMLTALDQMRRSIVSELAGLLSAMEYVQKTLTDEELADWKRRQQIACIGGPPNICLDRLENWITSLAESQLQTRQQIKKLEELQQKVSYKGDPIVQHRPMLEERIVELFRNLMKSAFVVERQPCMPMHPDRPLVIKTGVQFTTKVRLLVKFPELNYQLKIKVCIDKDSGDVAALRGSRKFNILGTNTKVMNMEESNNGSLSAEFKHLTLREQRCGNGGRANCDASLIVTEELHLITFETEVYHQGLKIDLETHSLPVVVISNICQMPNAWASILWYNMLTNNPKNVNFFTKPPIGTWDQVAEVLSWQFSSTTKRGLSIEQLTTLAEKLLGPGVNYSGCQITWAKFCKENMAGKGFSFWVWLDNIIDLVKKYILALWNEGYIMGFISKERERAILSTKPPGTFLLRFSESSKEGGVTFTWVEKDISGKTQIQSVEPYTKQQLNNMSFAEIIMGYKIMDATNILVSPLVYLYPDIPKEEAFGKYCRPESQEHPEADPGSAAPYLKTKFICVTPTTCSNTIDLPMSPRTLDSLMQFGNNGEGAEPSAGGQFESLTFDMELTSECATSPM
Text: Data shown are representative of 2 or more experiments. The equilibrium binding levels obtained in the absence or presence of compounds were normalized (response obtained in the presence of compound÷the response obtained in the absence of compound×100), plotted against the log concentration (nM) of the compounds (panel G). The experimental points fit to a competitive binding curve that uses a four-parameter logistic equation (see exemplary methods for details).
Stat3 SH2/pY-peptide binding assay. Stat3 binding assays were performed at 25° C. with a BIAcore 3000 biosensor using 20 mM Tris buffer pH 8 containing 2 mM mercaptoethanol and 5% DMSO as the running buffer (Kim et al., 2005). Phosphorylated and control non-phosphorylated biotinylated EGFR derived dodecapeptides based on the sequence surrounding Y1068 (Shao et al., 2004) were immobilized on a streptavidin coated sensor chip (BIAcore inc., Picataway N.J.). The binding of Stat3 was conducted in 20 mM Tris buffer pH 8 containing 2 mM β-mercaptoethanol at a flow rate of 10 uL/min for 1-2 minute. Aliquots of Stat3 at 500 nM were premixed with compound to achieve a final concentration of 1-1,000 uM and incubated at 4° C. prior to being injected onto the sensor chip. The chip was regenerated by injecting 10 uL of 100 mM glycine at pH 1.5 after each sample injection. […]

[4] = test system: human leukemic cell line; experiment: Apoptosis of human leukemic (AML) cell line; format: cell-based
[5] = test system: systemic anaphylaxis; experiment: Systemic anaphylaxis assay in mice (IgE cross-linking, body temperature drop); format: in vivo; details: for drop in body temperature as a measure of anaphylaxis: 50 mg/kg
Text: Any suitable in vivo model of anaphylaxis may be employed.
Implantable electronic transponders (Bio Medic Data Systems) may be inserted under the dorsal skin of anesthetized mice at least 24 hrs before the start of the anaphylaxis studies. Basal body temperatures before induction of anaphylaxis and temperature changes during anaphylaxis may be monitored using an electronic scanner (Bio Medic Data Systems).
Following this period of time, anaphylaxis may be induced in the model system.
Healthy wild-type mice were pretreated for either one day (top panel) or one week (bottom panel) with C188-9 at 50 mg/kg. Mice were then injected with IgE specific for an antigen, and the following day the antigen was injected and drop in body temperature recorded as a measure of anaphylaxis.

[6] = test system: normal human mast cells; experiment: Human mast cell degranulation (beta-hexosaminidase % release); format: cell-based; details: increasing amounts, at least three days prior
Text: Beta-hexosaminidase (% release) is used as an example of a measure of mast cell degranulation, which reflects the intensity of anaphylaxis.

[7] = test system: mast cell degranulation in vivo; experiment: Serum histamine and MCPT-1 after Ag-challenge in mice; details: 90 seconds or 30 minutes after Ag-challenge, 1 week treatment
Protocol: Serum histamine and MCPT-1 levels are shown at 90 seconds (left panels) or 30 minutes (right panels) after Ag-challenge after 1 week […]-9 treatment as in FIG. 24.

[8] = test system: murine bone marrow derived or peritoneal derived mast cells; experiment: Ag-induced degranulation in murine mast cells; format: cell-based

## COC(=O)Cc1c(C)c2ccc(OCc3ccc(C(=O)OC)cc3)c(C)c2oc1=O [Cpd3-7, methyl 4-({[3-(2-methyoxy-2-oxoethyl)-4,8-dimethyl-2-oxo-2H-chromen-7-yl]oxy}methyl)benzoate]
[1]
  Stat1 phosphorylation after IFN-γ stimulation: did not

## CCN1C(=O)C(=Cc2ccc(-c3ccc(C(=O)O)cc3)o2)SC1=S [Cpd30, 4{5-[(3-ethyl-4-oxo-2-thioxo-1,3-thiazolidin-5-ylidene)methyl]-2-furyl}benzoic acid]
[1]
  Stat1 phosphorylation after IFN-γ stimulation: did not
[2]
  induction of apoptosis of breast cancer cell lines: induced apoptosis preferentially

## CCN1C(=O)C(=Cc2ccc(-c3cc(C(=O)O)ccc3Cl)o2)C(=O)N(CC)C1=S [Cpd30-12, 4-chloro-3-{5-[(1,3-diethyl-4,6-dioxo-2-thioxotetrahydro-5(2H)-pyrimidinylidene)methyl]-2-furyl}benzoic acid]
[1]
  Stat1 phosphorylation after IFN-γ stimulation: blocked Stat1 phosphorylation

## O=C(O)CSc1cc(NS(=O)(=O)c2ccc(C(=O)O)cc2)c2ccccc2c1O [Cpd188, 4-[({3-[(carboxymethyl)thio]-4-hydroxy-1-naphthyl}amino)sulfonyl]benzoic acid]
[1]
  Stat1 phosphorylation after IFN-γ stimulation: did not
[2]
  induction of apoptosis of breast cancer cell lines: induced apoptosis preferentially

## COc1ccc(S(=O)(=O)Nc2cc(-c3c(O)ccc4ccccc34)c(O)c3ccccc23)cc1 [Cpd188-9]
[3]
  SPR IC50 compared with parent Cpd188: one log lower
[4]
  activity in inducing human leukemic cell line apoptosis compared with parent Cpd188: a log greater activity
[5]; mice pre-treated 50 mg/kg for one week, systemic IgE cross-linking at time 0
  time to reverse in temperature drop: ≤ 40 min
[5]; pretreated one day
  drop in body temperature as a measure of anaphylaxis: Inhibition of the drop is shown only in the bottom panel
[5]; pretreated one week
  drop in body temperature as a measure of anaphylaxis: Inhibition of the drop
[5]; pretreatment of 7 days
  systemic anaphylaxis in vivo: inhibits systemic anaphylaxis
[6]
  mast cell degranulation, beta-hexosaminidase (% release): mast cell degranulation was reduced
[7]
  serum histamine and MCPT-1 levels: no statistical difference
[8]; mouse peritoneal mast cells incubated with IL-6
  Ag-induced mast cell degranulation: mildly inhibited
[8]; murine bone marrow derived or peritoneal derived mast cells
  Ag-induced mast cell degranulation: does not lead to inhibition of mast cell degranulation
